What was measured:
[1] = test system: HCV replicon cells; test: HCV replicon FRET / luciferase assay; assay type: cell-based; conditions: Hepatitis C virus, 50% reduction in FRET or luciferase activity
Method: FRET Assay Preparation. The HCV FRET screening assay was performed in 96-well cell culture plates. The FRET peptide (Anaspec, Inc.) (Taliani et al., Anal. Biochem. 1996, 240, 60-67) contains a fluorescence donor, EDANS, near one end of the peptide and an acceptor, DABCYL, near the other end. The fluorescence of the peptide is quenched by […] resonance energy transfer (RET) between the donor and the acceptor, but as the NS3 protease cleaves the peptide the products are released from RET quenching and the fluorescence of the donor becomes apparent. The assay reagent was made as follows: 5× cell Luciferase cell culture lysis reagent from Promega (#E153A) diluted to 1× with dH2O, NaCl added to 150 mM final, the FRET peptide diluted to 20 μM final from a 2 mM stock.
To prepare plates, HCV replicon cells, with or without a Renilla luciferase reporter gene, were trypsinized and plated in a 96-well plate with titrated test compounds added in columns 3 through 12; columns 1 and 2 contained a control compound (HCV control inhibitor), and the bottom row contained cells with DMSO only. The plates were then placed in a CO2 incubator at 37° C.
Assays. Subsequent to addition of the test compounds described above (FRET Assay Preparation), at various times the plate was removed and Alamar blue solution (Trek Diagnostics, #00-100) was added to measure cellular toxicity. After reading in a Cytoflour 4000 instrument (PE Biosystems), plates were rinsed with PBS and then used for FRET assay by the addition of 30 ul of the FRET peptide assay reagent described above (FRET Assay Preparation) per well. The plate was then placed into the Cytoflour 4000 instrument which had been set to 340 excite/490 emission, automatic mode for up to 20 cycles and the plate read in a kinetic mode. Typically, the signal to noise using an endpoint analysis after the reads was at least three-fold. Alternatively, after Alamar blue reading, plates were rinsed with PBS, then used for luciferase assay using the Promega Dual-Glo Luciferase Assay System or the Promega EnduRen Live Cell Substrate assay.
Compound analysis was performed by quantification of the relative HCV replicon inhibition and the relative cytotoxicity values. To calculate cytoxicity values, the average Alamar Blue fluorescence signals from the control wells were set as 100% non-toxic. The individual signals in each of the compound test wells were then divided by the average control signal and multiplied by 100% to determine […]. To calculate the HCV replicon inhibition values, an average background value was obtained from the two wells containing the highest amount of HCV control inhibitor at the end of the assay period. These numbers were similar to those obtained from naïve Huh-7 cells. The background numbers were then subtracted from the average signal obtained from the control wells and this number was used as 100% activity. The individual signals in each of the compound test wells were then divided by the averaged control values after background subtraction and multiplied by 100% to determine percent activity. EC50 values were calculated as the concentration which caused a 50% reduction in FRET or luciferase activity. The two numbers generated for the compound plate, percent cytoxicity and percent activity, were used to determine compounds of interest for further analysis.

[2] = molecular target: T1, HCV NS5B RdRp (Hepatitis C virus genotype 1b, UniProt Q9WMX2); test: HCV NS5B RdRp enzyme assay; assay type: biochemical; conditions: HCV NS5B genotype 1b, standard or modified RdRp assay not given
T1 construct: The protein was expressed with an 18 amino acid C-terminal truncation to enhance the solubility; made in house; host or cells: E. coli BL21(DE3)
Method: HCV NS5B RdRp cloning, expression, and purification. The cDNA encoding the NS5B protein of HCV, genotype 1b, was cloned into the pET21a expression vector. The protein was expressed with an 18 amino acid C-terminal truncation to enhance the solubility. The E. coli competent cell line BL21(DE3) was used for expression of the protein. Cultures were grown at 37° C. for ˜4 hours until the cultures reached an optical density of 2.0 at 600 nm. The cultures were cooled to 20° C. and induced with 1 mM […]. Fresh ampicillin was added to a final concentration of 50 μg/ml and the cells were grown overnight at 20° C.
Cell pellets (3 L) were lysed for purification to yield 15-24 mgs of purified NS5B. The lysis buffer consisted of 20 mM Tris-HCl, pH 7.4, 500 mM NaCl, 0.5% triton X-100, 1 mM DTT, 1 mM EDTA, 20% glycerol, 0.5 mg/ml lysozyme, 10 mM MgCl2, 15 ug/ml deoxyribonuclease I, and Complete TM protease inhibitor tablets (Roche). After addition of the lysis buffer, frozen cell pellets were resuspended using a tissue homogenizer. To reduce the viscosity of the sample, aliquots of the lysate were sonicated on ice using a microtip attached to a Branson sonicator. The sonicated lysate was centrifuged at 100,000×g for 1 hr at 4° C. and filtered through a 0.2 μm filter unit (Corning).
The protein was purified using two sequential chromatography steps: Heparin sepharose CL-6B and polyU sepharose 4B (Pharmacia). The chromatography buffers were identical to the lysis buffer but contained no lysozyme, deoxyribonuclease I, MgCl2 or protease inhibitor and the NaCl concentration of the buffer was adjusted according to the requirements for charging the protein onto the column. Each column was eluted with a NaCl gradient which varied in length from 5-50 column volumes depending on the column type. After the final chromatography step, the resulting purity of the enzyme is >90% based on SDS-PAGE analysis. The enzyme was aliquoted and stored at −80° C.
Standard HCV NS5B RdRp enzyme assay. HCV RdRp genotype 1b assays were run in a final volume of 60 μl in 96 well plates (Corning 3600). The assay buffer is composed of 20 mM Hepes, pH 7.5, 2.5 mM KCl, 2.5 mM MgCl2, 1 mM DTT, 1.6 U RNAse inhibitor (Promega N2515), 0.01 mg/ml BSA (Sigma B6917), and 2% glycerol. All compounds were serially diluted (3-fold) in DMSO and diluted further in water such that the final concentration of DMSO in the assay was 2%. HCV RdRp genotype 1b enzyme was used at a final concentration of 28 nM. A polyA template was used at 6 nM, and a biotinylated oligo-dT12 primer was used at 180 nM final concentration. Template was obtained commercially (Amersham 27-4110). Biotinylated primer was prepared by Sigma Genosys. 3H-UTP was used at (0.29 μM total UTP). Reactions were initiated by the addition of enzyme, incubated at 30° C. for 60 min, and stopped by adding 25 μl of 50 mM EDTA containing SPA beads (4 μg/μl, Amersham RPNQ 0007). Plates were read on a Packard Top Count NXT after >1 hr incubation at room temperature.
Modified HCV NS5B RdRp enzyme assay. A modified enzyme assay was performed essentially as described for the standard enzyme assay except for the following: The biotinylated oligo dT12 primer was precaptured on streptavidin-coated SPA beads by mixing primer and beads in assay buffer and incubating at room temperature for one hour. Unbound primer was removed after centrifugation. The primer-bound beads were resuspended in 20 mM Hepes buffer, pH 7.5 and used in the assay at final concentrations of 20 nM primer and […] beads. Order of addition in the assay: enzyme (1.75 nM) was added to diluted compound followed by the addition of a mixture of template (0.36 nM), 3H-UTP (0.6 μCi, 0.29 μM), and primer-bound beads, to initiate the reaction; concentrations given are final. Reactions were allowed to proceed for 4 hours at 30° C.
IC50 values for compounds were determined using seven different [I]. […]

T1 sequence (Q9WMX2 2420-2992): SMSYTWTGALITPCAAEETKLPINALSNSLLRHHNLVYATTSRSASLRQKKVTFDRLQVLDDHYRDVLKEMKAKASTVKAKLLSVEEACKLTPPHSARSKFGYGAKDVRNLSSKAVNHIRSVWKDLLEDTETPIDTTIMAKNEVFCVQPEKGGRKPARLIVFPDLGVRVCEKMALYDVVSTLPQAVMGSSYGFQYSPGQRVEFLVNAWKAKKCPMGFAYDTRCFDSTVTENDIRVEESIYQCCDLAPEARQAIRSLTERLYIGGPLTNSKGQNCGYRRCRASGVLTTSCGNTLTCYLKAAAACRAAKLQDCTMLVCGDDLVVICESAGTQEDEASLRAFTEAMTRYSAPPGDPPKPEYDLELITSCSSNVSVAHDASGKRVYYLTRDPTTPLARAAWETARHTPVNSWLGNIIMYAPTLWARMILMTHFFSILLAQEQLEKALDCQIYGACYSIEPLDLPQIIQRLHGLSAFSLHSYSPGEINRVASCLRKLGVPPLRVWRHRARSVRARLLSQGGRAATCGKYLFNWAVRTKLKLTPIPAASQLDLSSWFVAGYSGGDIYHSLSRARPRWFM

SMILES	EC50 ([1]; class symbols) [nM]	IC50 ([2]; class symbols) [nM]	EC50 ([1]; numeric values) [nM]	IC50 ([2]; numeric values) [nM]
COc1ccc2c(c1)C1CC1(C(=O)N1CCC(c3nnc(C(C)C)o3)CC1)Cn1c-2c(C2CCCCC2)c2ccc(C(=O)NS(=O)(=O)C(C)C)cc21 (stereo not shown)	2 to 500	2 to 500		
COc1ccc2c(c1)C1CC1(C(=O)N1CCC(c3noc4cc(F)ccc34)CC1)Cn1c-2c(C2CCCCC2)c2ccc(C(=O)N[S+]([O-])N(C)C)cc21 (stereo not shown)	2 to 500	2 to 500		
CCCc1noc(C2CCN(C(=O)C34CC3c3cc(OC)ccc3-c3c(C5CCCCC5)c5ccc(C(=O)NS(=O)(=O)N(C)C)cc5n3C4)CC2)n1 (stereo not shown)	2 to 500	2 to 500		
COc1ccc2c(c1)C1CC1(C(=O)N1CCC(n3c(C)nnc3C)CC1)Cn1c-2c(C2CCCCC2)c2ccc(C(=O)NS(=O)(=O)N(C)C)cc21 (stereo not shown)	2 to 500	2 to 500		
COc1ccc2c(c1)C1CC1(C(=O)N1CCC(c3nnc(N)s3)CC1)Cn1c-2c(C2CCCCC2)c2ccc(C(=O)NS(=O)(=O)N(C)C)cc21 (stereo not shown)			190	60
COc1ccc2c(c1)C1CC1(C(=O)N1CCC(c3nc4cc(C)ccc4[nH]3)CC1)Cn1c-2c(C2CCCCC2)c2ccc(C(=O)NS(=O)(=O)N(C)C)cc21 (stereo not shown)	2 to 500	2 to 500		
COc1ccc2c(c1)C1CC1(C(=O)N1CCCCC1c1nccs1)Cn1c-2c(C2CCCCC2)c2ccc(C(=O)NS(=O)(=O)N(C)C)cc21 (stereo not shown)			290	70
COc1ccc2c(c1)C1CC1(C(=O)N1CCCCC1c1nc(C(C)C)no1)Cn1c-2c(C2CCCCC2)c2ccc(C(=O)NS(=O)(=O)N(C)C)cc21 (stereo not shown)	2 to 500	2 to 500		
COc1ccc(-c2cnn(C3CCN(C(=O)C45CC4c4cc(OC)ccc4-c4c(C6CCCCC6)c6ccc(C(=O)NS(=O)(=O)N(C)C)cc6n4C5)CC3)c2)cc1 (stereo not shown)	2 to 500	2 to 500		
COc1ccc2c(c1)C=C(C(=O)N1CCC(c3nncn3C)CC1)Cn1c-2c(C2CCCCC2)c2ccc(C(=O)NS(=O)(=O)N(C)C)cc21	2 to 500	2 to 500		
COc1ccc2c(c1)C1CC1(C(=O)N1CCC(c3cc4ccccc4o3)CC1)Cn1c-2c(C2CCCCC2)c2ccc(C(=O)NS(=O)(=O)C(C)C)cc21 (stereo not shown)	> 500	2 to 500		
COc1ccc2c(c1)C1CC1(C(=O)N1CCC(n3cc(-c4ccc(Cl)cc4)cn3)CC1)Cn1c-2c(C2CCCCC2)c2ccc(C(=O)NS(=O)(=O)N(C)C)cc21 (stereo not shown)	2 to 500	2 to 500		
COc1ccc2c(c1)C1CC1(C(=O)N1CCC(c3nnc(C)o3)CC1)Cn1c-2c(C2CCCCC2)c2ccc(C(=O)NS(=O)(=O)C(C)C)cc21 (stereo not shown)			110	70
COc1ccc2c(c1)C1CC1(C(=O)N1CCC(n3cc(-c4ccccc4Cl)cn3)CC1)Cn1c-2c(C2CCCCC2)c2ccc(C(=O)NS(=O)(=O)N(C)C)cc21 (stereo not shown)	2 to 500	2 to 500		
COc1ccc2c(c1)C1CC1(C(=O)N1CCC(c3nc(C)no3)CC1)Cn1c-2c(C2CCCCC2)c2ccc(C(=O)NS(=O)(=O)N(C)C)cc21 (stereo not shown)			90	30
COc1ccc2c(c1)C1CC1(C(=O)N1CCC(c3cc(-c4ccco4)n[nH]3)CC1)Cn1c-2c(C2CCCCC2)c2ccc(C(=O)NS(=O)(=O)N(C)C)cc21 (stereo not shown)	2 to 500	2 to 500		
COc1ccc2c(c1)C1CC1(C(=O)N1CCC(c3nc(C)no3)CC1)Cn1c-2c(C2CCCCC2)c2ccc(C(=O)NS(=O)(=O)C(C)C)cc21 (stereo not shown)			100	30
COc1ccc2c(c1)C1CC1(C(=O)N1CCC(c3nncn3C)CC1)Cn1c-2c(C2CCCCC2)c2ccc(C(=O)NS(=O)(=O)N(C)C)cc21 (stereo not shown)	2 to 500	2 to 500		
COc1ccc2c(c1)C1CC1(C(=O)N1CCC(n3cc(-c4ccccc4)cn3)CC1)Cn1c-2c(C2CCCCC2)c2ccc(C(=O)NS(=O)(=O)N(C)C)cc21 (stereo not shown)	2 to 500	2 to 500		
COc1ccc2c(c1)C1CC1(C(=O)N1CCC(c3nc4ccccc4o3)CC1)Cn1c-2c(C2CCCCC2)c2ccc(C(=O)NS(=O)(=O)N(C)C)cc21 (stereo not shown)	2 to 500	2 to 500		
CCOC(=O)c1coc(C2CCN(C(=O)C34CC3c3cc(OC)ccc3-c3c(C5CCCCC5)c5ccc(C(=O)NS(=O)(=O)N(C)C)cc5n3C4)CC2)n1 (stereo not shown)	2 to 500	2 to 500		
COc1ccc2c(c1)C1CC1(C(=O)N1CCC(c3nnc(C)o3)CC1)Cn1c-2c(C2CCCCC2)c2ccc(C(=O)NS(=O)(=O)N(C)C)cc21 (stereo not shown)			50	20
COc1ccc2c(c1)[C@@H]1C[C@]1(C(=O)N1CCC(c3nnc(C)o3)CC1)Cn1c-2c(C2CCCCC2)c2ccc(C(=O)NS(=O)(=O)N(C)C)cc21			30	30

From patent US8178523B2, “Compounds for the treatment of hepatitis C” (Bristol-Myers Squibb Company, priority 2008, dated 2012)
